From US20250002960A1, “COMPOSITIONS AND METHODS FOR NUCLEIC ACID EXTENSION” (Pacific Biosciences of California, Inc., priority 2023, published 2025) come the findings set out here.

Series [1] deals with NO bond at the 3′ position of a polynucleotide. In words: Octet/CE cyclic extension assay (SBB extension cycles, extended primer length read by capillary electrophoresis). Format: biochemical. The text has this: The polynucleotides were Cy3-primers hybridized to biotinylated template DNA which were in turn bound to streptavidin coated tips of the Octet system. The Octet system move a set of 8 tips between the wells of a heated 96-well plate, for a set number of SBB extension cycles. Each cycle included an IMG step under conditions at which fluorescent nucleotides of ternary complexes could be imaged, an RTN step in which amineoxy terminated nucleotides were incorporated at the 3′ end of the primer by a polymerase, a wash step that removes excess nucleotides, and a CLV step that exposes the amineoxy terminated extended primer to a deblocking agent or candidate. The length of extended polynucleotides were then detected by capillary electrophoresis (CE), as described in US Patent Pub. No. 2019/0241945, the content of which is incorporated herein.
Polynucleotide sequence was synthesized using the Octet/CE method where non-extendable polynucleotides having a 3′ amineoxy group were used to reversibly stop extension, as shown in the workflow scheme of FIG. 1A.
(§1) CDP was formulated with a number of different buffers at different pH and various different amines as solubility enhancers. 47 formulations were made and tested. In general, CDP was dissolved in water and loaded onto Dowex 50™ cation exchange resin, and incubated for a few minutes. The resin was eluted with an aqueous solution of the amine solubility enhancer. The resulting solution was either used directly in Octet/CE assays or dried form a solid that was very soluble in water.
A number of other carbonyl compounds were test for their ability to cleave the NO bond at the 3′ position of a polynucleotide, according to the assay design shown in FIG. 1A.
Deblocking candidates were tested at various concentrations, generally between 1 and 100 mM (e.g., at 1 mM, 2 mM, 4 mM, 8 mM, 20 mM, 35 mM, 40 mM, 70 mM, and/or 100 mM for different candidates), in acetate (1 M) and tris (0.2 M) buffers, and buffered at pH 6 or 8, with and without amine counterion.
A general note: Biolayer interferometry detects binding as a change in optical thickness at a sensor tip.

For series [2], the system named is library of polynucleotides. Briefly: Sequencing-by-binding run, On/Off signal intensity by cycle. Format: biochemical. The settings on record: after 150 cycles, CDP versus SOP (sodium NO2). As for the experimental part:
A library of polynucleotides were sequenced in a sequencing-by-binding workflow, and On/Off signal intensity was measured in each sequencing cycle, as described in US Patent Pub. No. 2020/0032317, the content of which is incorporate herein. Specifically, ‘on’ signal intensity (corresponds to the binding of the cognate nucleotide) and ‘off’ signal intensity (corresponds to the binding of the non-cognate nucleotide) in each SBB cycle. By using [NaNO2] 2 M and considering pH 5.2 and based on Henderson-Hasselbalch equation, we calculated that 18 mM of the nitrous acid exists in CLV (Cleave) reagent. Although, this cleave formulation is efficient in converting dNTP-RT to dNTP on the sequencing strand, however, it may have one or more disadvantages, such as instability, corrosivity, and/or DNA damage. Regarding instability: nitrous acid in our current CLV reagent degrades and produces nitrogen oxide gas (NOx) which weaken strength of the deblocking reagent. Nitrous acid is very corrosive and has […] with plastics consumables and instruments.
Y axis is on/off intensities. […] A library of polynucleotides were sequenced in a sequencing-by-binding workflow, and On/Off signal intensity was measured in each sequencing cycle, as described in US Patent Pub. […]

The nature of series [3]: Solubility of the deblocking agent in the deblocking composition. Format: physicochemical. Conditions: in words. The method, then: as §1
The mark [4] stands for this setting: compared to SOP cleave in sodium acetate buffer, in words.

Like-named read-outs stand apart in the source and are kept apart here.

As for Hydroxycarbamide [reference compound], in series [1], the “Extension at 40 C. in 37 cycles Octet CE assay” value was “No extension”.

On to `O=C(P(=O)(O)O)P(=O)(O)O` [CDP, Carbonyl diphosphonate], for which the “signal to noise ratio” value in series [2] was “comparable”. Further, in series [1], the “cleavage of NO bond (deblocking, extension in multiple cycles)” value (from here on “cleavage of NO bond”) is reported as “comparable to NaNO2” and the “Extension at 40 C. in 37 cycles Octet CE assay” value came to 37 bp Extension. In series [1] (37 cycles of extension), the negative phasing is 0.21% and the positive phasing is 0.17%. Further, in series [1] (setting [4]), the “negative dephasing on electropherogram” value is on record as “higher negative dephasing” and the “positive dephasing on electropherogram” value was “higher positive dephasing”. In addition, the dephasing of product result in series [1] (compared to SOP, in words) was “minimal dephasing”. Also, in series [1] (in words), the “cleavage of NO bond” value was “deblocking”. Further, the solubility issue entry in series [3] is listed as “slight solubility issue”.

For `CC(=O)P(=O)([O-])[O-].[Na+].[Na+]` [Di sodium acetylphosphonate], in series [1], the “Extension at 40 C. in 37 cycles Octet CE assay” value worked out at 12 bp Extension and the “Extension at 52 C. in 37 cycles octet/Ce assay” value is recorded as 3 bp Extension. For the same compound, the “cleavage of NO bond” value in series [1] (in words) is “deblocking”.

For the compound `CC(=O)OP(=O)([O-])[O-].[K+].[Li+]` [LiK Aceyl Phosphate, reference compound], the “Extension at 40 C. in 37 cycles Octet CE assay” value in series [1] is “No Extension”.

With `CS(=O)(=O)CC(=O)c1ccccc1` [Methyl sulfonyl acetophenone], in series [1], the “Extension at 40 C. in 37 cycles Octet CE assay” value came out at 5 bp Extension and the “Extension at 52 C. in 37 cycles octet/Ce assay” value stood at 5 bp Extension. Besides, the “cleavage of NO bond” value in series [1] (in words) is “deblocking”.

`CNC(=O)NC` [Dimethyl urea, reference compound]: the “Extension at 40 C. in 37 cycles Octet CE assay” value in series [1] is “No Extension”.

For the compound `O=N[O-].[Na+]` [NaNO2, sodium nitrite, reference compound], in series [1], the negative phasing was 0.04% and the positive phasing is listed as 0.05%.

Turning to `COP(=O)([O-])C(C)=O.[Na+]` [methyl acetylphosphonate, methyl acetylphosphonate CH3—CO—PO(Ome)—O^− Na^+, reference compound], in series [1], the “Extension at 40 C. in 37 cycles Octet CE assay” value was “No Extension”.

For `O=Cc1ccc(S(=O)(=O)[O-])cc1S(=O)(=O)[O-].[Na+].[Na+]` [Di sodium 4-formylbenzene-1,3-disolfonate], in series [1], the “Extension at 40 C. in 37 cycles Octet CE assay” value worked out at 3 bp Extension and the “Extension at 52 C. in 37 cycles octet/Ce assay” value was found to be 3 bp Extension. The “cleavage of NO bond” value in series [1] (in words) was “deblocking”.

For the compound `CCC(=O)CP(=O)([O-])[O-].[Na+].[Na+]` [Di sodium (2-oxobutyl)phosphonate], in series [1], the “Extension at 40 C. in 37 cycles Octet CE assay” value worked out at 4 bp Extension and the “Extension at 52 C. in 37 cycles octet/Ce assay” value worked out at 4 bp Extension. Moreover, the “cleavage of NO bond” value in series [1] (in words) is “deblocking”.
